Assay results published in patent publication US10292412B2, “High solubility natural sweetener compositions” (KRAFT FOODS GLOBAL BRANDS LLC, priority 2012, dated 2019).
Where “and” joins values, the source holds several entries; their conditions need not be identical. Equal values may be shown once.

How the values were obtained:
Type in all cases: physicochemical
[1] = Example 2: solubility of rebaudioside A in liquid concentrates with varying water, acid and alcohol; parameters: scale not given here
Protocol: Liquid concentrate formulations were prepared including varying levels of rebaudioside A, water, alcohol, and acid. The solubility was measured at various concentrations of each of the components and the results are included in the tables below: […]

[2] = Example 3: solubility (1-5 scale) after seven days; ambient water, heated water or 0.45 micron filtered rebaudioside A solutions with citric acid and ethanol
Protocol: Several solutions including rebaudioside A were prepared to test the effect of heating and filtering on the solubility of rebaudioside A. The formulations are as follows: […]
The solutions for the ambient water experimentation were prepared by dissolving rebaudioside A in ambient water (about 68° F. to about 77° F.) using a magnetic stir bar. Citric acid and ethanol were then dissolved into the solution using a magnetic stir bar.
The solutions for the heated water experimentation were prepared by heating water to 150° F. Rebaudioside A was added and dissolved using a magnetic stir bar. The solution was removed from the heat and citric acid was added and dissolved by a magnetic stir bar. After the solution cooled to 100° F. or below, ethanol was added and stirred into the solution by a magnetic stirrer.
The solutions for the filtered rebaudioside A experimentation were prepared by first dissolving rebaudioside A in ambient water (about 68° F. to about 77° F.) using a magnetic stir bar. The solution was then passed through a 0.45 micron filter. Citric acid and ethanol were dissolved into the solution using a magnetic stir bar.
Solubility was measured according to the 1-5 scale in the table above after seven days. […]

[3] = Example 6: solubility rating of rebaudioside A liquid concentrate after 33 months at 35° F.; conditions: water 62.27%, Citric Acid 16.96%, Potassium Citrate 1.4%, Flavor (80%-90% Ethanol) 11%, Reb A 4.4%, Malic Acid 3.89%, Shade 0.08%
Protocol: A liquid concentrate sample was prepared using rebaudioside A from Cargill. Samples were measured for solubility as defined in sections 46-47. The samples were rated as 3 on the scale after 33 months at 35° F. The formula is included in the table below: […]

Response 1 Solubility ([1]; Water/Phosphoric Acid/Ethanol (190 Proof)/RebA 92.44/0.00/0.00/7.56 ml): 5
Response 1 Solubility ([1]; Water/Phosphoric Acid/Ethanol (190 Proof)/RebA 99.40/0.00/0.00/0.60 ml): 3 and 2
Response 1 Solubility ([1]; Water/Tartaric Acid/Ethanol (190 Proof)/RebA 18.70369333/21.97/51.77/7.56 ml): 1
Response 1 Solubility ([1]; Water/Tartaric Acid/Ethanol (190 Proof)/RebA 19.2674479/6.63/71.76/2.34 ml): 2
Response 1 Solubility ([1]; Water/Tartaric Acid/Ethanol (190 Proof)/RebA 19.2674479/14.30/62.35/4.08 ml): 2
Response 1 Solubility ([1]; Water/Tartaric Acid/Ethanol (190 Proof)/RebA 30.1664432/27.48/41.75/0.60 ml): 1
Response 1 Solubility ([1]; Water/Tartaric Acid/Ethanol (190 Proof)/RebA 30.81333333/4.93/56.70/7.56 ml): 2
Response 1 Solubility ([1]; Water/Tartaric Acid/Ethanol (190 Proof)/RebA 33.13173333/0.00/66.26/0.60 ml): 1
Response 1 Solubility ([1]; Water/Tartaric Acid/Ethanol (190 Proof)/RebA 33.2952179/19.41/41.47/5.82 ml): 1
Response 1 Solubility ([1]; Water/Tartaric Acid/Ethanol (190 Proof)/RebA 37.40738667/29.15/25.88/7.56 ml): 1
Response 1 Solubility ([1]; Water/Tartaric Acid/Ethanol (190 Proof)/RebA 39.9320216/13.74/45.72/0.60 ml): 1
Response 1 Solubility ([1]; Water/Tartaric Acid/Ethanol (190 Proof)/RebA 47.9588/0.00/47.96/4.08 ml): 1
Response 1 Solubility ([1]; Water/Tartaric Acid/Ethanol (190 Proof)/RebA 49.4338911/26.16/22.06/2.34 ml): 1
Response 1 Solubility ([1]; Water/Tartaric Acid/Ethanol (190 Proof)/RebA 49.51702667/12.11/30.81/7.56 ml): 1
Response 1 Solubility ([1]; Water/Tartaric Acid/Ethanol (190 Proof)/RebA 57.8023437/16.05/22.06/4.08 ml): 1
Response 1 Solubility ([1]; Water/Tartaric Acid/Ethanol (190 Proof)/RebA 60.3328864/39.06/0.00/0.60 ml): 1
Response 1 Solubility ([1]; Water/Tartaric Acid/Ethanol (190 Proof)/RebA 61.92/9.00/25.00/4.08 ml): 2
Response 1 Solubility ([1]; Water/Tartaric Acid/Ethanol (190 Proof)/RebA 65.18/8.00/21.00/5.82 ml): 3
Response 1 Solubility ([1]; Water/Tartaric Acid/Ethanol (190 Proof)/RebA 65.44/8.00/19.00/7.56 ml): 4
Response 1 Solubility ([1]; Water/Tartaric Acid/Ethanol (190 Proof)/RebA 65.4874479/6.63/22.06/5.82 ml): 4
Response 1 Solubility ([1]; Water/Tartaric Acid/Ethanol (190 Proof)/RebA 66.26346667/0.00/33.13/0.60 ml): 1
Response 1 Solubility ([1]; Water/Tartaric Acid/Ethanol (190 Proof)/RebA 68.22072/24.22/0.00/7.56 ml): 2
Response 1 Solubility ([1]; Water/Tartaric Acid/Ethanol (190 Proof)/RebA 71.18/16.00/7.00/5.82 ml): 2
Response 1 Solubility ([1]; Water/Tartaric Acid/Ethanol (190 Proof)/RebA 75.92/3.00/17.00/4.08 ml): 4
Response 1 Solubility ([1]; Water/Tartaric Acid/Ethanol (190 Proof)/RebA 75.92/12.00/8.00/4.08 ml): 3
Response 1 Solubility ([1]; Water/Tartaric Acid/Ethanol (190 Proof)/RebA 76.18/11.00/7.00/5.82 ml): 4
Response 1 Solubility ([1]; Water/Tartaric Acid/Ethanol (190 Proof)/RebA 77.0697916/18.85/0.00/4.08 ml): 2
Response 1 Solubility ([1]; Water/Tartaric Acid/Ethanol (190 Proof)/RebA 78.92/5.00/12.00/4.08 ml): 4
Response 1 Solubility ([1]; Water/Tartaric Acid/Ethanol (190 Proof)/RebA 84.92/3.00/8.00/4.08 ml): 5
Response 1 Solubility ([1]; Water/Tartaric Acid/Ethanol (190 Proof)/RebA 86.3744288/13.02/0.00/0.60 ml): 1
Response 1 Solubility ([1]; Water/Tartaric Acid/Ethanol (190 Proof)/RebA 92.44/0.00/0.00/7.56 ml): 5
Response 1 Solubility ([1]; Water/Tartaric Acid/Ethanol (190 Proof)/RebA 99.3952/0.00/0.00/0.60 ml): 2
Response 1 Solubility ([1]; Water/acid/alcohol/RebA 96.67/0.00/0.00/3.33 ml): 5
Response 1 Solubility ([1]; Water/acid/alcohol/RebA 97.01/0.00/0.00/2.99 ml): 5
Response 1 Solubility ([1]; Water/acid/alcohol/RebA 97.34/0.00/0.00/2.66 ml): 5
Response 1 Solubility ([1]; Water/acid/alcohol/RebA 97.67/0.00/0.00/2.33 ml): 5
Response 1 Solubility ([1]; Water/acid/alcohol/RebA 98.00/0.00/0.00/2.00 ml): 5
Response 1 Solubility ([1]; Water/acid/alcohol/RebA 98.34/0.00/0.00/1.66 ml): 5
Response 1 Solubility ([1]; Water/acid/alcohol/RebA 98.67/0.00/0.00/1.33 ml): 5
Response 1 Solubility ([1]; Water/acid/alcohol/RebA 99.00/0.00/0.00/1.00 ml): 5
Response 1 Solubility ([1]; Water/acid/alcohol/RebA 99.33/0.00/0.00/0.67 ml): 2
Response 1 Solubility ([1]; Water/acid/alcohol/RebA 99.67/0.00/0.00/0.33 ml): 1
solubility after seven days ([2]; ambient water, 5 wt % rebaudioside A, all ethanol/acid conditions tested except high ethanol (30% by volume) and high acid (30% by weight)): crystallized
solubility after seven days ([2]; ambient water, 10 wt % rebaudioside A, high ethanol (30% by volume) and high acid (30% by weight)): failed
solubility after seven days ([2]; ambient water, filtered at 0.45 micron, 5 wt % rebaudioside A, all points except low acid/low ethanol): passed
solubility after seven days ([2]; heated water (150° F.), 5 wt % rebaudioside A, all ethanol/acid points): passed
solubility after seven days ([2]; heated water (150° F.), 10 wt % rebaudioside A, all ethanol/acid points): passed
solubility after seven days ([2]; heated water (150° F.), 15 wt % rebaudioside A, low ethanol (10%)/low acid (10%)): failed
solubility after seven days ([2]; heated water (150° F.), 15 wt % rebaudioside A, medium ethanol (20%)/low acid): failed
Structure (SMILES): C=C1C[C@@]23CC[C@H]4[C@@](C)(CCC[C@@]4(C)C(=O)O[C@@H]4O[C@H](CO)[C@@H](O)[C@H](O)[C@H]4O)[C@@H]2CC[C@]1(O[C@@H]1O[C@H](CO)[C@@H](O)[C@H](O[C@@H]2O[C@H](CO)[C@@H](O)[C@H](O)[C@H]2O)[C@H]1O[C@@H]1O[C@H](CO)[C@@H](O)[C@H](O)[C@H]1O)C3 [Reb A, rebaudioside A]
solubility rating on the scale [3]: 3 (a solubility of 3 may be represented by 1% to 5% v/v of pellet)
